Test results from paper PMC4958397, “Synthesis, antibacterial and antiproliferative potential of some new 1-pyridinecarbonyl-4-substituted thiosemicarbazide derivatives” (Medicinal Chemistry Research, 2016).
In brackets after ≈: the same amount, converted by molar mass.

Key:
[1] = test system: Staphylococcus epidermidis ATCC 12228; assay: Disk diffusion, zone of bacterial growth inhibition; type: cell-based; settings: Staphylococcus epidermidis, ATCC12228, 100 μg of compound, read-out: Zone of bacterial growth inhibition, S.e
Source text: (§1) Panel reference strains of bacteria from the American Type Culture Collection or Polish Collection of Microorganisms, including aerobic Gram-positive bacteria: Staphylococcus aureus ATCC 25923 and Staphylococcus epidermidis ATCC 12228, and aerobic Gram-negative bacteria: Escherichia coli ATCC 25922 and Pseudomonas aeruginosa ATCC 9027, as well as microaerobic Gram-positive bacteria: Lactobacillus spp., Lactobacillus acidophilus PCM 2105, Streptococcus mutans PCM 2502 and Streptococcus sanguinis PCM 2335, were used. Microbial suspensions with an optical density of 0.5 McFarland standard at 1.5 × 10^8 CFU/mL (CFU: colony forming unit) were prepared in sterile 0.9 % NaCl. Mueller–Hinton (M–H) broth and M–H agar (Oxoid Ltd., England) for aerobic strains, and MRS Broth Lactobacillus, MRS Agar Lactobacillus (BioMaxima S.A., Poland), BHI Broth and BHI agar (BioMaxima S.A., Poland) for microaerobic strains were used in the microbial tests.
(§2) The preliminary antibacterial activity of the carbazide derivatives against human pathogenic Gram-positive, Gram-negative aerobic and microaerobic bacteria was evaluated by measuring the zones of inhibition in the disk diffusion method (Murray et al., [1995]). Each compound (100 µg) was placed on Petri plates with agar medium (previously inoculated with 0.5 McFarland standards with the tested bacterial strains). After 18 h of incubation at 37 °C (for aerobic strains) or 40 h at 35 °C (for microaerobic strains), zones of microbial growth produced around the tested substances were measured and recorded as the diameters of inhibition.

[2] = test system: Streptococcus mutans PCM 2502; assay: as above; type: cell-based; settings: Streptococcus mutans, PCM2502, 100 μg of compound, read-out: Zone of bacterial growth inhibition, S.m
Source text: as §1, §2

[3] = test system: Lactobacillus acidophilus PCM 210; assay: as above; type: cell-based; settings: Lactobacillus acidophilus, PCM210, 100 μg of compound, read-out: Zone of bacterial growth inhibition, L.a
Source text: as §1, §2

[4] = test system: Streptococcus sanguinis PCM 2335; assay: as above; type: cell-based; settings: Streptococcus sanguinis, PCM2335, 100 μg of compound, read-out: Zone of bacterial growth inhibition, S.s
Source text: as §1, §2

[5] = test system: Escherichia coli ATCC 25922; assay: as above; type: cell-based; settings: Escherichia coli, ATCC25922, 100 μg of compound, read-out: Zone of bacterial growth inhibition, E.c
Source text: as §1, §2

[6] = test system: Staphylococcus aureus ATCC 25923; assay: as above; type: cell-based; settings: Staphylococcus aureus, ATCC25923, 100 μg of compound, read-out: Zone of bacterial growth inhibition, S.a
Source text: as §1, §2

Lactobacillus spp. = assay: as above; type: cell-based; settings: Lactobacillus, 100 μg of compound, read-out: Zone of bacterial growth inhibition, L.spp.
Source text: as §1, §2

[7] = test system: Pseudomonas aeruginosa ATCC 9027; assay: as above; type: cell-based; settings: Pseudomonas aeruginosa, ATCC9027, 100 μg of compound, read-out: Zone of bacterial growth inhibition, P.a
Source text: as §1, §2

[8] = test system: Lactobacillus acidophilus PCM 210; assay: Broth microdilution MIC; type: cell-based; settings: for MIC: Lactobacillus acidophilus, PCM210, NA means inactive, read-out: Minimum inhibitory concentration (MIC), L. acidophilus
[9] = test system: Staphylococcus epidermidis ATCC 12228; assay: Broth microdilution MIC; type: cell-based; settings: Staphylococcus epidermidis, ATCC12228, NA means inactive, read-out: Minimum inhibitory concentration (MIC), S. epidermidis
Source text: as §1
(§3) A broth microdilution method was used to evaluate the minimum inhibition concentration (MIC) according to the CLSI document (CLSI performance standards for antimicrobial susceptibility testing, 2008, Eighteenth International Supplement, CLSI document M7-MIC, Clinical Laboratory Standards Institute, Wayne) with some modifications. […] A serial doubling dilution of the compounds was prepared in 96-well plates (200 μL per well). A suitable medium (M-H Broth, MRS Broth Lactobacillus, BHI Broth) was used as a diluent. The final concentrations of derivatives were 1000–0.015 μg/mL. Finally, 2 μL of inoculum of the tested bacterial strain (1.5 × 10^8 CFU/mL) was added to each well. The tests were performed either at 36 °C for 18 h (aerobic strains) or at 40 h (microaerobic strains). After incubation, the panel was digitally analyzed at 600 nm using the microplate reader Bio Tech Synergy (USA) with a dedicated software system. The growth intensity in each well was compared with the negative and positive controls.

[10] = test system: Streptococcus mutans PCM 2502; assay: Broth microdilution MIC; type: cell-based; settings: Streptococcus mutans, PCM2502, NA means inactive, read-out: Minimum inhibitory concentration (MIC), S. mutans
Source text: as §1, §3

[11] = test system: Streptococcus sanguinis PCM 2335; assay: Broth microdilution MIC; type: cell-based; settings: Streptococcus sanguinis, PCM2335, NA means inactive, read-out: Minimum inhibitory concentration (MIC), S. sanguinis
Source text: as §1, §3

[12] = test system: Escherichia coli ATCC 25922; assay: Broth microdilution MIC; type: cell-based; settings: NA means inactive; for MIC: Escherichia coli, ATCC25922, broth microdilution, read-out: Minimum inhibitory concentration (MIC), E. coli; for Minimum inhibitory concentration (MIC), E. coli: broth microdilution
Source text: as §1, §3

[13] = test system: Staphylococcus aureus ATCC 25923; assay: Broth microdilution MIC; type: cell-based; settings: Staphylococcus aureus, ATCC25923, NA means inactive, read-out: Minimum inhibitory concentration (MIC), S. aureus
Source text: as §1, §3

[14] = test system: Pseudomonas aeruginosa ATCC 9027; assay: Broth microdilution MIC; type: cell-based; settings: Pseudomonas aeruginosa, ATCC9027, NA means inactive, read-out: Minimum inhibitory concentration (MIC), P. aeruginosa
Source text: as §1, §3

[15] = test system: aerobic Gram-positive bacteria; assay: Broth microdilution MIC, summary in text; type: cell-based; settings: range over compounds and strains; read-out: MIC against aerobic Gram-positive bacteria
Source text: as §1, §3

SMILES	zone of inhibition at 100 µg/disc [1]	zone of inhibition at 100 µg/disc [2]	zone of inhibition at 100 µg/disc [3]	zone of inhibition at 100 µg/disc [4]	zone of inhibition at 100 µg/disc [5]	zone of inhibition at 100 µg/disc [6]	zone of inhibition at 100 µg/disc (Lactobacillus spp.)	zone of inhibition at 100 µg/disc [7]	MIC [8]	MIC [9]	MIC [10]	MIC [11]	MIC [12]	MIC [13]	MIC [14]	MIC [15]	Minimum inhibitory concentration (MIC), E. coli [12]	melting point	Minimum inhibitory concentration (MIC), L. acidophilus ([8]; NA means inactive)
[H]/N=C(\N/C(=N/[H])NCCCCCCNC(=N)NC(=N)Nc1ccc(Cl)cc1)Nc1ccc(Cl)cc1 [CLX, chlorhexidine digluconate, reference compound]	23 mm	26 mm	24 mm	29 mm	15 mm	23 mm	24 mm	16 mm	0.976 µg/mL	0.488 µg/mL	0.488 µg/mL	7.81 µg/mL	0.488 µg/mL	0.488 µg/mL	15.6 µg/mL				
O=C(NNC(=S)Nc1ccccc1Cl)c1ccccn1 [Compound 2, 4-(2-Chlorophenyl)-1-(pyridin-2-yl)carbonylthiosemicarbazide]	25 mm	24 mm	16 mm	0 mm	20 mm	17 mm	24 mm	4 mm	62.5 µg/mL (≈ 204 µM)	31.2 µg/mL	250 µg/mL	250 µg/mL	62 to 125 µg/mL	31.2 µg/mL	1000 µg/mL	15.6 to 500 µg/mL	62.5 µg/mL	172 to 174 °C	
O=C(NNC(=S)Nc1ccc(Cl)cc1Cl)c1ccccn1 [Compound 4, 4-(2,4-Dichlorophenyl)-1-(pyridin-2-yl)carbonylthiosemicarbazide]	27 mm	35 mm	20 mm	25 mm	20 mm	22 mm	24 mm	14 mm	31.2 µg/mL (≈ 91.6 µM)	31.2 µg/mL	31.2 µg/mL	7.81 µg/mL	62 to 125 µg/mL	31.2 µg/mL	500 µg/mL	15.6 to 500 µg/mL	62.5 µg/mL	158 to 160 °C	
CSc1ccc(NC(=S)NNC(=O)c2cccnc2)cc1 [Compound 6, 4-(4-Methylthiophenyl)-1-(pyridin-3-yl)carbonylthiosemicarbazide]	9 mm	11 mm	0 mm	19 mm	9 mm	10 mm	0 mm	0 mm	> 1000 µg/mL	500 µg/mL	250 µg/mL	15.6 µg/mL	62 to 125 µg/mL	250 µg/mL	> 1000 µg/mL	15.6 to 500 µg/mL	62.5 µg/mL	176 to 177 °C	did not limit the growth
O=C(NNC(=S)Nc1ccc(Cl)cc1Cl)c1cccnc1 [Compound 7, 4-(2,4-Dichlorophenyl)-1-(pyridin-3-yl)carbonylthiosemicarbazide]	10 mm	24 mm	5 mm	10 mm	9 mm	0 mm	7 mm	0 mm	> 1000 µg/mL	500 µg/mL	500 µg/mL	1000 µg/mL	> 1000 µg/mL	> 1000 µg/mL	> 1000 µg/mL			196 to 197 °C	
CCOc1ccc2nc3cc(N)ccc3c(N)c2c1 [Ethacridine lactate, ethacridine lactate, reference compound]	8 mm	24 mm	15 mm	24 mm	12 mm	10 mm	10 mm	4 mm	31.2 µg/mL	31.2 µg/mL	62.5 µg/mL	31.2 µg/mL	15.6 µg/mL	31.2 µg/mL	125 µg/mL				
